Source: US10597388B2, “Pyridazinone herbicides” (FMC CORPORATION, priority 2014, dated 2020)

Assays:
Format in all cases: in vivo
[1] = tested on: blackgrass (Alopecurus myosuroides); experiment: Test A greenhouse herbicide test, postemergence
Method in brief: (§1)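 Seedlings in a loam soil and sand mix received formulated compound postemergence at the one- to two-leaf stage. Greenhouse holding lasts approximately 10 d, then injury is scored visually relative to untreated plants, 0 meaning no effect and 100 complete control.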

[2] = tested on: galium (catchweed bedstraw, Galium aparine); experiment: Test A greenhouse herbicide test, postemergence
Method in brief: as §1

[3] = tested on: blackgrass (Alopecurus myosuroides); experiment: Test C greenhouse herbicide test, pre- and postemergence
Text: (§2) Seeds of plant species selected from blackgrass (Alopecurus myosuroides), ryegrass, Italian (Italian ryegrass, Lolium multiflorum), wheat (winter wheat, Triticum aestivum), galium (catchweed bedstraw, Galium aparine), corn (Zea mays), large crabgrass, large (large crabgrass, Digitaria sanguinalis), foxtail, giant (giant foxtail, Setaria faberii), johnsongrass (Sorghum halepense), lambsquarters (Chenopodium album), morningglory (Ipomoea coccinea), nutsedge, yellow (yellow nutsedge, Cyperus esculentus), pigweed (Amaranthus retroflexus), ragweed (common ragweed, Ambrosia elatior), soybean (Glycine max), barnyardgrass (Echinochloa crus-galli), oilseed rape (Brassica napus), waterhemp (common waterhemp, Amaranthus rudis), and velvetleaf (Abutilon theophrasti) were planted into a blend of loam soil and sand and treated preemergence with test chemicals formulated in a non-phytotoxic solvent mixture which included a surfactant.
(§3) At the same time, plants selected from these crop and weed species and also chickweed (common chickweed, Stellaria media), kochia (Kochia scoparia), and oat, wild (wild oat, Avena fatua), were planted in pots containing Redi-Earth® planting medium (Scotts Company, 14111 Scottslawn Road, Marysville, Ohio 43041) comprising spaghnum peat moss, vermiculite, wetting agent and starter nutrients and treated with postemergence applications of test chemicals formulated in the same manner. Plants ranged in height from 2 to 18 cm (1- to 4-leaf stage) for postemergence treatments. Treated plants and controls were maintained in a greenhouse for 13 to 15 d, after which time all species were compared to controls and visually evaluated. Plant response ratings, summarized in Table C, are based on a scale of 0 to 100 where 0 is no effect and 100 is complete control. A dash (-) response means no test result.

[4] = tested on: ragweed (common ragweed, Ambrosia elatior); experiment: as above
Text: as §2, §3

[5] = tested on: galium (catchweed bedstraw, Galium aparine); experiment: as above
Text: as §2, §3

[6] = tested on: barnyardgrass (Echinochloa crus-galli); experiment: as above
Text: as §2, §3

soybean (Glycine max) = experiment: as above
Text: as §2, §3

[7] = tested on: velvetleaf (Abutilon theophrasti); experiment: as above
Text: as §2, §3

[8] = tested on: nutsedge, yellow (yellow nutsedge, Cyperus esculentus); experiment: as above
Text: as §2, §3

[9] = tested on: pigweed (Amaranthus retroflexus); experiment: as above
Text: as §2, §3

[10] = tested on: ryegrass, Italian (Italian ryegrass, Lolium multiflorum); experiment: as above
Text: as §2, §3

[11] = tested on: oat, wild (wild oat, Avena fatua); experiment: Test C greenhouse herbicide test, postemergence
Method in brief: (§4)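 Greenhouse postemergence spray on plants 2–18 cm tall; response judged visually after 13–15 d relative to untreated controls using a 0 (none) to 100 (full control) scale.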

kochia (Kochia scoparia) = experiment: Test C greenhouse herbicide test, postemergence
Method in brief: as §4

[12] = 125 g ai/ha, 0 to 100 scale where 0 is no effect and 100 is complete control
[13] = 500 g ai/ha, visual rating after approx. 10 d, 0 to 100 scale (0 no effect, 100 complete control)
[14] = Postemergence, 31 g ai/ha, scale 0 to 100 (0 no effect, 100 complete control)
[15] = Postemergence, 62 g ai/ha, 0 to 100 scale (0 no effect, 100 complete control)
[16] = Postemergence, 250 g ai/ha, scale 0 to 100, 0 no effect, 100 complete control, 13 to 15 d
[17] = Preemergence, 31 g ai/ha, scale 0 to 100, 0 is no effect, 100 is complete control
[18] = Preemergence, 62 g ai/ha, scale 0 to 100, 0 is no effect, 100 is complete control
[19] = Preemergence, 125 g ai/ha, scale 0 to 100, 0 is no effect, 100 is complete control
[20] = Preemergence, 250 g ai/ha, scale 0 to 100, 0 no effect, 100 complete control
[21] = postemergence, 125 g ai/ha, scale 0 to 100, 0 no effect, 100 complete control

SMILES: Cc1nn(C)c(=O)c(-c2ccc(Cl)c3ccccc23)c1O [Compound 139]
- Plant response rating, Blackgrass [1, 12]: 60
- Plant response rating, Blackgrass [1, 13]: 90
- Plant response rating, Galium [2, 12]: 100
- Plant response rating, Galium [2, 13]: 100
- Plant response rating, Blackgrass [3, 14]: 20
- Blackgrass plant response rating [3, 15]: 50
- Plant response rating, Blackgrass [3, 16]: 10
- Plant response rating, Blackgrass [3, 17]: 50
- Plant response rating, Blackgrass [3, 18]: 55
- Plant response rating, Blackgrass [3, 19]: 60
- Blackgrass plant response rating [3, 20]: 90
- Blackgrass plant response rating [3, 21]: 60
- Plant response rating, Ragweed [4, 14]: 0
- Ragweed plant response rating [4, 15]: 0
- Plant response rating, Ragweed [4, 16]: 0
- Plant response rating, Ragweed [4, 17]: 75
- Plant response rating, Ragweed [4, 18]: 90
- Plant response rating, Ragweed [4, 19]: 95
- Ragweed plant response rating [4, 20]: 100
- Ragweed plant response rating [4, 21]: 0
- Plant response rating, Galium [5, 14]: 95
- Galium plant response rating [5, 15]: 95
- Plant response rating, Galium [5, 16]: 100
- Plant response rating, Galium [5, 17]: 90
- Plant response rating, Galium [5, 18]: 90
- Plant response rating, Galium [5, 19]: 100
- Galium plant response rating [5, 20]: 100
- Galium plant response rating [5, 21]: 100
- Plant response rating, Barnyardgrass [6, 14]: 25
- Barnyardgrass plant response rating [6, 15]: 20
- Plant response rating, Barnyardgrass ([6]; Postemergence, 125 g ai/ha, scale 0 to 100, 0 is no effect, 100 is complete control): 40
- Plant response rating, Barnyardgrass [6, 16]: 60
- Plant response rating, Barnyardgrass [6, 17]: 20
- Plant response rating, Barnyardgrass [6, 18]: 55
- Plant response rating, Barnyardgrass [6, 19]: 75
- Barnyardgrass plant response rating [6, 20]: 95
- Plant response rating, Soybean (soybean (Glycine max); [14]): 45
- Soybean plant response rating (soybean (Glycine max); [15]): 55
- Plant response rating, Soybean (soybean (Glycine max); [16]): 60
- Plant response rating, Soybean (soybean (Glycine max); [17]): 25
- Plant response rating, Soybean (soybean (Glycine max); [18]): 35
- Plant response rating, Soybean (soybean (Glycine max); [19]): 60
- Soybean plant response rating (soybean (Glycine max); [20]): 80
- Soybean plant response rating (soybean (Glycine max); [21]): 65
- Plant response rating, Velvetleaf [7, 14]: 70
- Velvetleaf plant response rating [7, 15]: 80
- Plant response rating, Velvetleaf [7, 16]: 100
- Plant response rating, Velvetleaf [7, 17]: 60
- Plant response rating, Velvetleaf [7, 18]: 85
- Plant response rating, Velvetleaf [7, 19]: 100
- Velvetleaf plant response rating [7, 20]: 100
- Velvetleaf plant response rating [7, 21]: 95
- Plant response rating, Nutsedge, Yellow [8, 14]: 55
- Nutsedge, Yellow plant response rating [8, 15]: 75
- Plant response rating, Nutsedge, Yellow [8, 16]: 85
- Plant response rating, Nutsedge, Yellow [8, 17]: 65
- Plant response rating, Nutsedge, Yellow [8, 18]: 60
- Plant response rating, Nutsedge, Yellow [8, 19]: 85
- Nutsedge, Yellow plant response rating [8, 20]: 90
- Nutsedge, Yellow plant response rating [8, 21]: 70
- Plant response rating, Pigweed [9, 14]: 80
- Pigweed plant response rating [9, 15]: 95
- Plant response rating, Pigweed [9, 16]: 98
- Plant response rating, Pigweed [9, 17]: 70
- Plant response rating, Pigweed [9, 18]: 98
- Plant response rating, Pigweed [9, 19]: 100
- Pigweed plant response rating [9, 20]: 100
- Pigweed plant response rating [9, 21]: 98
- Plant response rating, Ryegrass, Italian [10, 14]: 5
- Ryegrass, Italian plant response rating [10, 15]: 10
- Plant response rating, Ryegrass, Italian [10, 16]: 60
- Plant response rating, Ryegrass, Italian [10, 17]: 95
- Plant response rating, Ryegrass, Italian [10, 18]: 100
- Plant response rating, Ryegrass, Italian [10, 19]: 100
- Ryegrass, Italian plant response rating [10, 20]: 100
- Ryegrass, Italian plant response rating [10, 21]: 35
- Plant response rating, Oat, Wild [11, 14]: 90
- Oat, Wild plant response rating [11, 15]: 90
- Plant response rating, Oat, Wild [11, 16]: 90
- Oat, Wild plant response rating [11, 21]: 90
- Plant response rating, Kochia (kochia (Kochia scoparia); [14]): 95
- Kochia plant response rating (kochia (Kochia scoparia); [15]): 100
- Plant response rating, Kochia (kochia (Kochia scoparia); [16]): 100
- Kochia plant response rating (kochia (Kochia scoparia); [21]): 100
